Measured values taken from paper PMC8485799, “Synthesis and Antiprotozoal Profile of 3,4,5‐Trisubstituted Isoxazoles” (ChemistryOpen, 2021).
Read-outs that look alike come from different tables or passages of the source.

Columns and labels:
[1] = test system: fibroblast line (L929); experiment: Cytotoxicity assay in mammalian cells (MTT), fibroblasts, 72 h; assay type: cell-based
How it was run: (§1)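 Cells pre-grown 24 h to confluence (L929 2.5×10^5, J774 A1 5×10^5 cells.mL^−1), then exposed to compound dilutions at 37 °C, 5 % CO2: L929 in DMEM/10 % FBS for 72 h, J774 A1 in RPMI‐1640/10 % FBS for 48 h. MTT (2 mg.mL^−1, 4 h), formazan read at […]; CC50 from viability versus untreated controls.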

[2] = test system: promastigote forms of Leishmania amazonensis (WHOM/BR/75/JOSEFA strain); experiment: Antiproliferative assay (XTT), promastigote forms, 72 h; assay type: cell-based; conditions: for IC50: promastigote form, 72 h, XTT, read-out: L. amazonensis IC50; for SIL-F, selectivity index (Fibroblast CC50/L. amazonensis IC50): fibroblast vs promastigote; for SIL-M, selectivity index (Macrophages CC50/L. amazonensis IC50): macrophages vs promastigote
How it was run: (§2)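 Parasites at 1×10^6 mL^−1 with compound (DMSO stock diluted in medium): L. amazonensis promastigotes in Warren medium + 10% FBS at 25 °C for 72 h, T. cruzi epimastigotes in LIT medium + 10% FBS at 28 °C for 96 h. Viability by XTT/PMS for 4 h, absorbance at 450 nm. IC50 from % viable versus control.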

[3] = test system: macrophages (J774 A1); experiment: Cytotoxicity assay in mammalian cells (MTT), macrophages, 48 h; assay type: cell-based
How it was run: as §1

[4] = test system: epimastigote forms of Trypanosoma cruzi (Y strain); experiment: Antiproliferative assay (XTT), epimastigote forms, 96 h; assay type: cell-based; conditions: for IC50: epimastigote form, 96 h, XTT, read-out: T. cruzi IC50; for SIT-F, selectivity index (Fibroblast CC50/T. cruzi IC50): fibroblast vs epimastigote; for SIT-M, selectivity index (Macrophages CC50/T. cruzi IC50): macrophages vs epimastigote
How it was run: as §2

[5] = Cytotoxicity assay in mammalian cells (MTT), fibroblasts, 72 h; assay type: cell-based; conditions: mouse, L929 fibroblast cells, pH 7.2; 50 % inhibition of fibroblast growth, 72 h, MTT
How it was run: as §1

[6] = Cytotoxicity assay in mammalian cells (MTT), macrophages, 48 h; assay type: cell-based; conditions: mouse, J774 A1 macrophages, pH 7.2; 50 % inhibition of macrophages growth, 48 h, MTT
How it was run: as §1

[7] = test system: both forms of L. amazonensis; design: method as in PMID 27597410; conditions: cited from earlier work

Q: Which CC50 [1] does the source give for `CCOC(=O)c1noc(-c2ccc([N+](=O)[O-])cc2)c1CNc1ccccc1` [2 aa, 3‐Carboxyethyl‐4‐(phenyl)aminomethyl‐5‐(4‐nitrophenyl)isoxazole] here?
A: Its CC50 is 270 ± 8.9 µM.

Q: And the IC50 [2]?
A: Its IC50 is 34.8 ± 1.7 µM.

Q: What about the CC50 [3] of the same compound?
A: The CC50 was 202 ± 6.5 µM.

Q: And the IC50 [4]?
A: The IC50 was 54.2 ± 3 µM.

Q: Which CC50 at 72 h [5] does the source give for `O=C(N/N=C/c1ccc(-c2cccs2)s1)c1noc(-c2ccc(Cl)cc2)c1CNc1ccccc1` [6 da] here?
A: Its CC50 at 72 h is 347 ± 8.4 µM.

Q: And the IC50 ([2]; Leishmania amazonensis)?
A: Its IC50 is 28 ± 1.3 µM.

Q: And the “SIL-F, selectivity index (Fibroblast CC50/L. amazonensis IC50)” value [2]?
A: The value was 12.39.

Q: What about the “SIL-M, selectivity index (Macrophages CC50/L. amazonensis IC50)” value [2] of the same compound?
A: Its value is 11.14.

Q: What about the CC50 at 48 h [6] of the same compound?
A: The CC50 at 48 h was 312 ± 4.3 µM.

Q: What about the melting point of the same compound?
A: Its melting point is 208.4 to 209.9 °C.

Q: And the IC50 ([4]; Trypanosoma cruzi)?
A: Its IC50 is 27.2 ± 2.5 µM.

Q: And the “SIT-F, selectivity index (Fibroblast CC50/T. cruzi IC50)” value [4]?
A: Its value is 12.76.

Q: What about the “SIT-M, selectivity index (Macrophages CC50/T. cruzi IC50)” value [4] of the same compound?
A: The value was 11.47.

Q: Which CC50 at 72 h [5] does the source give for `COc1ccc(NCc2c(C(=O)N/N=C/c3ccc(-c4cccs4)s3)noc2-c2ccc(Cl)cc2)cc1` [6 dc] here?
A: The CC50 at 72 h was 398 ± 7.8 µM.

Q: What about the IC50 ([2]; Leishmania amazonensis) of the same compound?
A: Its IC50 is 32.7 ± 3 µM.

Q: And the “SIL-F, selectivity index (Fibroblast CC50/L. amazonensis IC50)” value [2]?
A: Its value is 12.16.

Q: What about the “SIL-M, selectivity index (Macrophages CC50/L. amazonensis IC50)” value [2] of the same compound?
A: Its value is 9.45.

Q: What about the CC50 at 48 h [6] of the same compound?
A: Its CC50 at 48 h is 309 ± 8 µM.

Q: What about the melting point of the same compound?
A: Its melting point is 199.9 to 202.7 °C.

Q: What about the IC50 ([4]; Trypanosoma cruzi) of the same compound?
A: The IC50 was 30.5 ± 1.6 µM.

Q: And the “SIT-F, selectivity index (Fibroblast CC50/T. cruzi IC50)” value [4]?
A: Its value is 13.0.

Q: What about the “SIT-M, selectivity index (Macrophages CC50/T. cruzi IC50)” value [4] of the same compound?
A: Its value is 10.1.

Q: For `O=C(N/N=C/c1cccs1)c1nn(-c2ccccc2)c(=O)c2c1cnn2-c1ccccc1` [IV], which “Activity against both forms of L. amazonensis” value [7] is on record?
A: The value was “good activity values”.

Q: For `O=C(N/N=C/c1ccc(-c2cccs2)s1)c1nn(-c2ccccc2)c(=O)c2c1cnn2-c1ccccc1` [V], which “Activity against both forms of L. amazonensis” value [7] is on record?
A: Its value is “good activity values”.
